Experimental findings from patent publication US10221459B2, “Compositions and methods of treating cancer harboring PIKC3A mutations” (Case Western Reserve University, priority 2014, dated 2019) are described below.

One series relates to HCT116 xenograft tumors. Description: Xenograft study, HCT116 (parental cells). In kind it is in vivo, mice. Conditions: for tumor regression: alone or in combination; for combinational effect with AOA: drug combined with AOA (10 mg/kg), HCT116 xenograft. The source says: (§1) FIGS. 4(A-D) illustrate plots showing aminooxyacetate (AOA) inhibits xenograft tumor growth of PIK3CA mutant CRCs but not PIK3CA WT CRCs. (A-B) AOA inhibits growth of xenograft formed by PIK3CA mutant clones but not PIK3CA WT clones. (A) Clones derived from HCT116 cells; (B) Clones derived from DLD1. (C) AOA inhibits growth of xenograft tumors formed by four CRC cell lines harboring PIK3CA mutations. […] N=5 mice in each experimental group. Data are presented as mean±SEM.
FIGS. 10(A-B) illustrate plots showing AOA synergizes with 5-FU to inhibit growth of HCT116 xenograft tumors.
FIGS. 12(A-B) illustrate images and a plot showing the combination of CB-839 and 5-FU shrinks HCT116 xenograft tumors.
(§2) Animal experiments were approved by the Case Western Reserve University Animal Care and Use Committee. As described in, 3 million cells were injected subcutaneously into the flanks of 4 to 6-week-old female athymic nude mice. Mice were randomly assigned into treatment groups (5 mice/group). When average tumor volume reached 100 mm3, mice were treated with vehicle control, 5 mg/kg or 10 mg/kg of AOA every day per IP (intraperitoneal) injection. Tumor volumes were measured with an electronic caliper and calculated as length×width^2/2.

The next series concerns RKO xenograft tumors. The experiment in a line: Xenograft study, RKO. The class given is in vivo, mice. The following applies: RKO (PIK3CA mutant); AOA every day IP.
From the text: as §1, §2

The next series concerns GPT activity. The experiment in a line: GPT activity in treated xenograft tumors assayed by amounts of α-KG. The class given is in vivo, mice. Conditions: Mus musculus, AOA 10 mg/kg. As for the experimental part:
(§3) FIGS. 11(A-C) illustrate plots and graph showing (A) enzyme kinetics of GPT2. Recombinant GPT2 was mixed with α-KG and alanine. The product pyruvate was detected by a colorimetric assay. (B) IC50 of AOA to GPT2. (C) Relative amounts of α-KG. Xenograft tumors were treated with 10 mg/kg of AOA or vehicle. α-KG in a untreated tumor was set as 100%.
(§4) However, AOA is pan-transaminase inhibitor.

Another series concerns LOVO xenograft tumors. Description: Xenograft study, LOVO. The class given is in vivo, mice. Conditions: LOVO (WT PIK3CA); AOA every day IP.
From the text: as §1, §2

In a further series the target is T1, Recombinant GPT2 (Homo sapiens, UniProt Q8TD30).
T1 sequence (Q8TD30 1-523): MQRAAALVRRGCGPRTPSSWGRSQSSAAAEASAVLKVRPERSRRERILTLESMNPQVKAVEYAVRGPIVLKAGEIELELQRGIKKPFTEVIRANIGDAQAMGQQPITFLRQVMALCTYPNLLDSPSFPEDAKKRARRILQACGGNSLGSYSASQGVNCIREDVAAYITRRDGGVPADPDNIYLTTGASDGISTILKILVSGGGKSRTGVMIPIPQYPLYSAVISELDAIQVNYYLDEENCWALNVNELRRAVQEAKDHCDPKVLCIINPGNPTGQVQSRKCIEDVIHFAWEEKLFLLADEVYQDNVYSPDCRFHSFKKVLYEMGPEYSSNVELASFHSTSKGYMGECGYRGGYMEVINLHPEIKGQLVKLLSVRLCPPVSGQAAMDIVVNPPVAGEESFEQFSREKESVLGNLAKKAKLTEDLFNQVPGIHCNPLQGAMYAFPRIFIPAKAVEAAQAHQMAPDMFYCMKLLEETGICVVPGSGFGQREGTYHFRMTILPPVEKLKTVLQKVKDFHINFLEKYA
The experiment in a line: GPT2 enzymatic assay (colorimetric pyruvate detection). Conditions: recombinant GPT2 mixed with α-KG and alanine; read-out: IC50 of AOA to GPT2. The class given is biochemical. As for the experimental part:
as §3, §4

For series [1], the system named is DLD1 PIK3CA mutant clone xenograft. Description: Xenograft study, DLD1 PIK3CA mutant clone. The class given is in vivo. The following applies: DLD1 PIK3CA mutant clone in nude mice; AOA 5 or 10 mg/kg every day IP.
From the text: as §1, §2

The subject of series [2] is HCT116 PIK3CA mutant and WT clones. Description: Growth inhibition in tissue culture, HCT116 PIK3CA mutant vs WT clones. The class given is cell-based. Conditions: for sensitivity to growth inhibition, PIK3CA-/mut vs PIK3CA WT/- cells: HCT116, various doses. The source says: (§5) FIGS. 9(A-C) illustrate graphs and an immunoblot showing aminooxyacetate (AOA) inhibits PIK3CA mutant tumor growth. (A) IC50 of AOA in HCT116 and DLD1 PIK3CA WT and mutant clones. (B) Body weights of the mice with xenograft established from the indicated CRC cells before and after AOA treatment. N=5 mice in each group. (C) Western blot analyses of GPT2 protein levels in the indicated cell lines.
(§6) To test if PIK3CA mutations render cancer cell sensitive to these inhibitors, we treated PIK3CA-/mut, PIK3CA WT/-HCT116 and DLD1 colon cancer cells with various doses of EGCG and BPTES.

In series [3] the test system is DLD1 PIK3CA WT clone xenograft. Description: Xenograft study, DLD1 PIK3CA WT clone. In kind it is in vivo. Conditions: isogenic DLD1 PIK3CA WT clone in nude mice; AOA every day IP.
From the text: as §1, §2

The test system of series [4] is HCT116 PIK3CA WT clone xenograft. The experiment in a line: Xenograft study, HCT116 PIK3CA WT clone. In kind it is in vivo. The following applies: isogenic HCT116 PIK3CA WT clone in nude mice; AOA every day IP.
From the text: as §1, §2

The subject of series [5] is DLD1 PIK3CA mutant and WT clones. The experiment in a line: Growth inhibition in tissue culture, DLD1 PIK3CA mutant vs WT clones. In kind it is cell-based. The following applies: for sensitivity to growth inhibition, PIK3CA-/mut vs PIK3CA WT/- cells: DLD1, various doses.
From the text: as §5, §6

Series [6] is described as follows: Body weights of xenograft mice before and after AOA treatment. In kind it is in vivo. The following applies: xenograft mice treated with AOA.
From the text: as §5, §2

A further series has as its system HT29 xenograft tumors. Description: Xenograft study, HT29. In kind it is in vivo, mice. The following applies: HT29 (PIK3CA mutant); AOA every day IP.
From the text: as §1, §2

A further series has as its system DLD1 xenograft tumors. Description: Xenograft study, DLD1 (parental cells). In kind it is in vivo, mice. Conditions: DLD1 parental cells (PIK3CA mutant); AOA every day IP.
From the text: as §1, §2

Series [7] deals with HCT116 PIK3CA mutant clone xenograft. Description: Xenograft study, HCT116 PIK3CA mutant clone. The class given is in vivo. Conditions: HCT116 PIK3CA mutant clone in nude mice; AOA 5 or 10 mg/kg every day IP.
From the text: as §1, §2

Another series relates to SW480 xenograft tumors. Description: Xenograft study, SW480. In kind it is in vivo, mice. Conditions: SW480 (WT PIK3CA); AOA every day IP.
From the text: as §1, §2

Series [8] has as its system ATF4 protein levels in the HCT116 PIK3CA mutant clone. Description: ATF4 protein levels after inhibitor exposure (immunoblot). In kind it is cell-based. Conditions: Western blot (FIG. 6C). Here is the method:
Ubiquitination of endogenous ATF4 (A). Ubiquitination of ectopically expressed Flag-tagged ATF4 and HA-tagged ubiquitin (B).
Cells were lysed in RIPA buffer [10 mM Tris (pH 7.4), 150 mM NaCl, 5 mM EDTA (pH 8.0), 0.1% SDS, 1% Triton-X100, 1 mM DTT, 1 mM PMSF, complete Protease Inhibitor Cocktail tablet (Roche); supplemented with phosphatase inhibitors (1 mM Na3VO4, 50 mM NaF, 1 mM β-glycerophosphate, 20 mM sodium pyrophosphate)]. Lysates were then cleared by centrifugation at 14,000 rpm for 10 min and protein concentration in supernatants was determined by the BCA protein assay kit (Pierce). Equal amounts of total protein were used for immunoblotting. For immunoprecipitation (IP), cells were lysed as mentioned above. Cleaned cell lysate incubated with antibody for one hour, and then protein A and/or protein G for one hour. Protein A/G beads were washed with lysis buffer three times, and then boiled with SDS-loading buffer followed with immunoblotting.
In general terms: In western blotting, separated proteins are transferred to a membrane and probed.

The mark [9] stands for this setting: HCT116 (PIK3CA mutant CRC) xenograft.
The mark [10] stands for this setting: single agent, HCT116 (PIK3CA mutant CRC) xenograft.

With `O=c1[nH]cc(F)c(=O)[nH]1` [5-FU, 5-fluorouracil], the tumor regression result in the series with HCT116 xenograft tumors (setting [9]) was “neither induced tumor regression”. For the same compound, the xenograft tumor growth entry in the series with HCT116 xenograft tumors (setting [10]) is recorded as “inhibited tumor growth to various extents”.
With `NOCC(=O)O` [AOA, aminooxyacetate], the xenograft tumor growth result with RKO xenograft tumors is listed as “inhibited xenograft tumor growth”; in the series on LOVO xenograft tumors it was “had no effect on xenograft tumor growth”; in [1] it was “significantly inhibited the growth”; in series [3], “had no effect”; in series [4], “had no effect”; in the series on HCT116 xenograft tumors (HCT116 parental cells (PIK3CA mutant), AOA every day IP), “inhibited xenograft tumor growth”. Moreover, the xenograft tumor growth result in the series on HT29 xenograft tumors was “inhibited xenograft tumor growth”; in the series with DLD1 xenograft tumors, “inhibited xenograft tumor growth”; in series [7], “significantly inhibited the growth”; with SW480 xenograft tumors, “had no effect on xenograft tumor growth”. The compound further yielded an inhibition at 10 mg/kg with GPT activity of approximately 30%. The IC50 at Recombinant GPT2 was 980 nM. Besides, the “sensitivity to AOA treatment, PIK3CA mutant clones vs WT clones” value in series [2] (HCT116 clones) and in [5] (DLD1 clones) was “more sensitive to AOA treatment than the WT clones” throughout. In addition, the “weight loss of treated mice” value in series [6] is “No weight loss was observed”.
Turning to `CC(C)CCN1c2nc(Nc3cc(F)c(O)c(F)c3)ncc2N(C)C(=O)C1C` (stereo not shown) [BI-D1870], the ATF4 protein levels entry in series [8] is given as “reduced ATF4 protein levels”.
`O=C(Cc1ccccc1)Nc1nnc(CCSCCc2nnc(NC(=O)Cc3ccccc3)s2)s1` [BPTES]: the “sensitivity to growth inhibition, PIK3CA-/mut vs PIK3CA WT/- cells” value in series [2] and in series [5] was “more sensitive to growth inhibition” throughout.
Consider `O=C(Cc1cccc(OC(F)(F)F)c1)Nc1ccc(CCCCc2nnc(NC(=O)Cc3ccccn3)s2)nn1` [CB-839], for which the tumor regression result in the series with HCT116 xenograft tumors (setting [9]) was “neither induced tumor regression”. The xenograft tumor growth result in the series with HCT116 xenograft tumors (setting [10]) is recorded as “inhibited tumor growth to various extents”.
On to `Cn1c(=O)n(-c2ccc(C(C)(C)C#N)cc2)c2c3cc(-c4cnc5ccccc5c4)ccc3ncc21` [DEZ235], for which the ATF4 protein levels entry in series [8] is “reduced ATF4 protein levels”.
For `O=C(O[C@@H]1Cc2c(O)cc(O)cc2O[C@@H]1c1cc(O)c(O)c(O)c1)c1cc(O)c(O)c(O)c1` [EGCG, Epigallocatechin gallate], the “sensitivity to growth inhibition, PIK3CA-/mut vs PIK3CA WT/- cells” value in series [2] and in series [5] was “more sensitive to growth inhibition” in each case.
As for `Cc1ccc(-c2c(C(=O)CF)n(CCCO)c3ncnc(N)c23)cc1` [FMK], in series [8], the ATF4 protein levels result is on record as “reduced ATF4 protein levels”.
The same measure, in the same setting: in the case of `CCn1c(-c2nonc2N)nc2c(C#CC(C)(C)O)ncc(OC[C@H]3CCCNC3)c21` [GSK690693] it was “neither an AKT inhibitor (GSK690693) nor an inhibitor (CHIR-99021) of GSK3β(a known downstream effector of AKT) had any effect on ATF4 protein levels”; in that of `CNc1nc(-c2ccc3c(N)n[nH]c3c2)cc(N2C[C@@H](C(=O)NC3CCCCC3)CC[C@H]2C)n1` [GSK2334470], “reduced ATF4 protein levels”.
Take `CCc1c2c(nc3ccc(OC(=O)N4CCC(N5CCCCC5)CC4)cc13)-c1cc3c(c(=O)n1C2)COC(=O)[C@]3(O)CC` [irinotecan]: the “combinational effect with AOA” value in the series on HCT116 xenograft tumors is reported as “none of the other drug showed any combinational effect with AOA”.
The same measure, in the same setting: in the case of `O=C1[O][Pt]2([NH][C@@H]3CCCC[C@H]3[NH]2)[O]C1=O` [oxaliplatin] it was “none of the other drug showed any combinational effect with AOA”.
Same read-out and setting: in the case of `CNC(=O)c1cc(Oc2ccc(NC(=O)Nc3ccc(Cl)c(C(F)(F)F)c3)c(F)c2)ccn1` [regorafenib] it was “none of the other drug showed any combinational effect with AOA”.

The term inhibition denotes the percentage by which the read-out fell short of the control. A low value points to a response near the control. The IC50 is the concentration needed to halve the response being measured.
